Test results published in article PMC7206614, “Photoswitchable ORG25543 Congener Enables Optical Control of Glycine Transporter 2” (ACS Chemical Neuroscience, 2020).
“Also recorded” adds a separate entry of the source.

Legend:
[1] = biological target: T1, GlyT2 (Homo sapiens, UniProt Q9Y345); test: Two-electrode voltage clamp of glycine transport currents in Xenopus laevis oocytes expressing GlyT2; type: cell-based; conditions: for reversibility: restoration of glycine transport currents after washout: inhibition at IC50 concentrations (1: 4 nM, 2: 50 nM), washed with ND96 for 30 min, glycine reapplied at 5 min intervals; for IC50: oocytes expressing GlyT2, Figure 4A, range in brackets, read-out: IC50, reduction of glycine transport currents
T1 construct: expressed in transfected cells; host or cells: Xenopus laevis oocytes injected with in vitro transcribed RNA
T1 sequence (Q9Y345 1-797): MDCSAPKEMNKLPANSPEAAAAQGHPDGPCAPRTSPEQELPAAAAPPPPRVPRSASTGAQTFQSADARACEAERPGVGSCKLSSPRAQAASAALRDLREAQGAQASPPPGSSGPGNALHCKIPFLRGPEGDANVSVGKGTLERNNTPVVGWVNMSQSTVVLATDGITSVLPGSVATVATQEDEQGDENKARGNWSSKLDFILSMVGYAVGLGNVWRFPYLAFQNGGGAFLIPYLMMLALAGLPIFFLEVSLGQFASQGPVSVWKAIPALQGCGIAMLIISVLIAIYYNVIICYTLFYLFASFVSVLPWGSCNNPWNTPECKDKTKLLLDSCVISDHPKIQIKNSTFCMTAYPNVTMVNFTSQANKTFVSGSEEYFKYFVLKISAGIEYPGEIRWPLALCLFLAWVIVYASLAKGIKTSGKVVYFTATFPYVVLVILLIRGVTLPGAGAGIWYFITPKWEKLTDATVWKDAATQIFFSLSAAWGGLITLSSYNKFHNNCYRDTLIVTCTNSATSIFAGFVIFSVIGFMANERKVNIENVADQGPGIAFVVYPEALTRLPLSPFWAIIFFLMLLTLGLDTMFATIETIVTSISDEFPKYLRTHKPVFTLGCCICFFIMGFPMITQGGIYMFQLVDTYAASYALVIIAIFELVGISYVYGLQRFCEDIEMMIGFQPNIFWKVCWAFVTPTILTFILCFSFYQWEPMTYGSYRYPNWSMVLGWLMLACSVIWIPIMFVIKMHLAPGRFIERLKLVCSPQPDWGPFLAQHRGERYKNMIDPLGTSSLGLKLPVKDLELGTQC

[2] = tested on: GlyT2; design: method as in PMID 23962079; conditions: cited from earlier work; for IC50: two-electrode voltage clamp, Xenopus laevis oocytes expressing GlyT2, read-out: IC50 at GlyT2 (potency); for reversibility of GlyT2 inhibition: washout from oocytes expressing GlyT2
[3] = tested on: rodent models of neuropathic pain; conditions: cited from earlier work
[4] = design: method as in PMID 23962079; conditions: cited from earlier work
[5] = tested on: rodents; conditions: cited from earlier work
[6] = tested on: mouse spinal cord slices; design: method as in PMID 15235081; conditions: exposure of mouse spinal cord slices for >10 min; cited from earlier work

| Structure (SMILES) | EC50 [1] [nM] | reversibility: restoration of glycine transport currents after washout [1] | IC50 [1] [nM] | IC50 [2] [nM] | reversibility of GlyT2 inhibition [2] | analgesia in rodent models of neuropathic pain [3] | blood brain barrier permeability [4] | adverse side effects ([5]; rodent) | effect on neuropathic pain (hyperalgesia and allodynia) [3] | effect on inhibitory postsynaptic currents [6] | toxicity on acute dosing in rodents [5] |
| --- | --- | --- | --- | --- | --- | --- | --- | --- | --- | --- | --- |
| NCC(=O)O [glycine] | 14300 |  |  |  |  |  |  |  |  |  |  |
| COc1cc(C(=O)NCC2(N(C)C)CCCCC2)ccc1OCc1ccccc1 [compound 2] |  | restoration of glycine transport currents | 48.5 | 100 | readily reversible; also recorded: allows for restoration of glycine currents | produced analgesia | blood brain barrier permeable | no adverse side effects |  |  |  |
| COc1cc(C(=O)NCC2(N(C)C)CCCC2)cc(OC)c1OCc1ccccc1 [ORG25543] |  | no reversibility | 3.76 | 20 | irreversible; also recorded: cannot be restored |  |  |  | ameliorates both hallmarks of neuropathic pain | long-term reduction of inhibitory postsynaptic currents | excitotoxicity, hyperekplexia-like symptoms, and in severe cases death |
